The values below come from US20240401027A1, “METHOD FOR IMPROVED INTRON TAGGING AND AUTOMATED CLONE RECOGNITION” (PROXYGEN GMBH, priority 2021, published 2024).

Structures are written as SMILES.

The experiment concerns pool of HAP1 cells expressing GFP-tagged proteins. Kind of experiment: Live cell imaging of GFP-tagged HAP1 cell pool and arrayed clones: compound effects on levels and localization of tagged proteins. In kind it is cell-based, human. The protocol:
Live cell imaging was performed on a PerkinElmer Opera Phenix microscope with excitation laser 488 nm, and emission filter 500-550 nm, 700 ms.
Identification of the expressed sgRNAs by in situ sequencing was performed by following and modifying published protocols, see, e.g., Feldman (2019) loc. cit; Ke (2013) Nat Methods 10, 857-60; and Larsson (2010) Nat Methods 7, 395-7.
Reverse transcription mix (1× RevertAid RT buffer, 250 µM dNTPs, 0.2 mg/mL BSA, 1 µM RT primer, 0.8 U/mL Ribolock RNase inhibitor, and 4.8 U/mL RevertAid H minus reverse transcriptase) was added to the sample and incubated for 16 hours at 37° C. Following reverse transcription, cells were washed 5 times with PBS-T and post-fixed with 3% paraformaldehyde and 0.1% glutaraldehyde for 30 minutes at room temperature and washed 5 times with PBS-T. Cells were incubated in a padlock probe and extension-ligation reaction mix (1× Ampligase buffer, 0.4 U/mL RNase H, 0.2 mg/mL BSA, 100 nM padlock probe, 0.02 U/mL KlenTaq polymerase, 0.5 U/mL Ampligase and […]) for 5 minutes at 37° C. and 90 minutes at 45° C., and then washed 2 times with PBS-T. Circularized padlocks were amplified with rolling circle amplification mix (1× Phi29 buffer, 250 µM dNTPs, 0.2 mg/mL BSA, 5% glycerol, and 1 U/mL Phi29 DNA polymerase) at 30° C. for 4 hours. Rolling circle amplicons were prepared for sequencing by hybridizing a mix containing sequencing primer oSBS_CROP-seq (1 µM primer in 2×SSC+10% formamide) for 30 minutes at room temperature. Barcodes were read out using sequencing-by-synthesis reagents from the Illumina NextSeq 500/550 kit v2 (Illumina 15057934). First, samples were washed with incorporation buffer (NextSeq 500/550 buffer cartridge, position 35) and incubated for 4 minutes in incorporation mix (NextSeq 500/550 reagent cartridge, position 31) at 60° C. Samples were then washed with incorporation buffer (4 washes, 60° C. for 4 minutes at the last wash) and placed in scan mix (NextSeq 500/550 reagent cartridge, position 30) for imaging. Imaging was performed on a PerkinElmer Opera Phenix microscope with excitation laser: 561 nm, emission filter: 570-630, 500 ms; excitation laser: 640 nm, emission filter: 650-760 nm, 500 ms using a 63× water immersion objective, confocal mode. Based were detected as follows: Base T: signal in 561 channel; Base C: signal in 640 channel, Base A: (weaker) signal in both channels, Base G: no signal. Following each imaging cycle, samples were washed with the cleavage mix (NextSeq 500/550 reagent cartridge, position 29) once followed by incubation with cleavage mix for 4 minutes at 60° C. to remove dye terminators. Samples were washed 5 times with incorporation buffer before starting the next cycle.
It was reasoned that the highly diverse pool of cells expressing GFP-tagged proteins can be used to identify compounds that change protein levels or localization of any of the tagged proteins. […] The application of the CROP-seq vector16 that expresses the sgRNA sequence in a polyadenylated mRNA transcript enables the cell-specific identification of the targeted intron by situ sequencing (see also Feldman, D. et al. Cell 179, 787-799 e17 (2019), Ke, R. et al. Nat Methods 10, 857-60 (2013), Larsson, C. et al. Nat Methods 7, 395-7 (2010). 17-19). To map targeted introns, the cell pool was fixed and a modified in situ sequencing protocol was developed to identify the sgRNA sequence integrated into individual cells in the pool. Based on the library diversity, eight cycles of nucleotide incorporation and imaging are sufficient to unambiguously assign sgRNA sequences (FIG. 6c). Application of this protocol to the cell pool confirmed that in clones with drastic loss of signal GFP was indeed targeted to BRD4 (FIG. 6d).
Therefore, the cell pool was treated with methotrexate (MTX), an antimetabolite impairing DNA and RNA synthesis and causing DNA damage by inhibiting tetrahydrofolate metabolism. […]

[1] abbreviates: dBET6-treated cell pool, FIG. 6e.

As to `Cc1sc2c(c1C)C(c1ccc(Cl)cc1)=N[C@@H](CC(=O)NCCCCCCCCNC(=O)COc1cccc3c1C(=O)N(C1CCC(=O)NC1=O)C3=O)c1nnc(C)n1-2` (some centres unmarked) [dBET6], under setting [1], the AKAP8 localization result is on record as “gain of nuclear foci”, the FUBP3 localization result is reported as “loss of subnuclear localization patterns”, the MEAF1 localization entry is “loss of subnuclear localization patterns” and the SFPQ localization result is on record as “gain of nuclear foci”. Under setting [1], the UNG nuclear intensity entry was “loss of nuclear intensity”.

Turning to `CN(Cc1cnc2nc(N)nc(N)c2n1)c1ccc(C(=O)N[C@@H](CCC(=O)O)C(=O)O)cc1` [methotrexate], under “1 µM methotrexate (FIG. 10)”, the DR1 nuclear signal entry is “gain of nuclear signal”, the “GFP-tagged RPA1 localization” value is “formation of nuclear foci”, the “GFP-tagged RPA2 localization” value was “formation of nuclear foci” and the NUDT21 nuclear signal entry is “gain of nuclear signal”. In addition, where the note is “1 µM methotrexate (FIG. 10)”, the PADI1 protein entry was “decreases”, the RUVBL1 protein entry is on record as “decreases”, the TPI1 nuclear signal entry is listed as “gain of nuclear signal” and the “nuclear DNMT1 foci” value was “disappearance of nuclear DNMT1 foci”. For the same compound, under “24 h MTX treatment, 1 µM methotrexate (FIG. 10)”, the “GFP-tagged ACLY localization” value is on record as “increased nuclear localization”.
